These results are taken from US20130064878A1, “WOUND HEALING COMPOSITIONS AND METHODS” (UNIVERSITY OF NOTRE DAME DU LAC, priority 2011, published 2013).

Experiment [1] deals with skin punch biopsy lesions of female diabetic mice (db/db mice). In words: Chronic wound model, two 6-mm skin punch biopsy lesions, topical treatment. It counts as in vivo, mouse.
Experimental: Female diabetic mice (db/db mice, 9-10 weeks old, Jackson Laboratory, Bar Harbour, Me.) (n=10 per group) were prepared for aseptic surgery by clipping the hair on the dorsal thorax and scrubbing the skin with betadine followed by alcohol. […] Each wound was covered with an occlusive dressing following biopsy. The mice recovered on a cage with clean bedding on a heating pad. Mice received buprenorphine subcutaneously (1.5-2.5 mg/kg) at the conclusion of surgery and again 3-5 hours later. Mice were administered 0.5 mL of warm sterile saline intraperitoneally at the conclusion of surgery. […] Wound closure was determined every day for each animal using the initial and final wound diameters, with the percentage wound closure calculated as [(initial−final)/initial]×100.
On day 12, half of the mice (n=10) were sacrificed and the wounds of each animal excised. The remaining mice continued treatment at the dosages provided above once a day until day 23, when they were sacrificed On the day of sacrifice, the wounds of each mouse were excised, and analyzed by histology, gelatin zymography and Western blot, and in situ gelatin zymography.
Female diabetic mice (db/db mice; 9-10 weeks old, Jackson Laboratory, Bar Harbour, Me.) (n=10 per group) were prepared for aseptic surgery by clipping the hair on the dorsal thorax and scrubbing the skin with betadine followed by alcohol. […] Each wound was covered with an occlusive dressing following biopsy. The mice recovered on a cage with clean bedding on a heating pad. Mice received buprenorphine subcutaneously (1.5-2.5 mg/kg) at the conclusion of surgery and again 3-5 hours later. Mice were administered 0.5 mL of warm sterile saline intraperitoneally at the conclusion of surgery. […] Wound closure was determined every day for each animal using the initial and final wound diameters, with the percentage wound closure calculated as [(initial−final)/initial]×100.
Female diabetic mice (db/db mice) (n=10 mice per group, n=2 wounds per mouse, 9-10 weeks old, Jackson Laboratory, Bar Harbour, Me.) were prepared for aseptic surgery by clipping the hair on the dorsal thorax and scrubbing the skin with betadine followed by alcohol. […] Each wound was covered with an occlusive dressing following biopsy. The mice recovered on a cage with clean bedding on a heating pad. Mice received buprenorphine subcutaneously (1.5-2.5 mg/kg) at the conclusion of surgery and again 3-5 hours later. Mice were administered 0.5 mL of warm sterile saline intraperitoneally at the conclusion of surgery. […] Wound closure was determined every day for each animal using the initial and final wound diameters, with the percentage wound closure calculated as [(initial−final)/initial]×100.
Experiment [2] relates to animal models of cancer metastasis, stroke, hemorrhage, spinal cord and brain injury. The settings on record: prostate, breast cancer and T-cell lymphoma metastasis, ischemic stroke, subarachnoid hemorrhage, traumatic brain injury, testosterone-induced neurogenesis; cited from earlier work.
Experiment [3] has as its system gelatinase activity in wound tissues of diabetic mice. In words: In-situ gelatin zymography with DQ-gelatin (Example 5). It counts as in vivo, mouse. The following applies: db/db mice; compared to vehicle. The procedure: (§1) Fresh wound tissue was cut, embedded in OCT compound, and cryosectioned at a thickness of 12-μm in preparation for hematoxylin-eosin (H&E) staining. Morphological assessment of re-epithelialization was performed on a Nikon Eclipse 90i Fluorescent Microscope (Nikon Instruments Inc., Melville, N.Y., USA) (Tkalcevic et al., Toxicol. Pathol. 37 (2), 183-192 (2009)). In situ gelatin zymography was performed as described (Oh et al., J. Neurosci. 19 (19), 8464-8475 (1999)). Briefly, unfixed cryostat sections (12-μm-thick) of wound tissues were incubated in a reaction buffer (50 mM TBS pH 7.6) containing DQ-gelatin conjugate (Molecular Probes, Eugene, Oreg., USA) at 37° C. for 6 h. After fixation in 4% paraformaldehyde in PBS, cells were counterstained with DAPI (Molecular Probes, Eugene, Oreg., USA) and the images were visualized by fluorescence microscopy.

Experiment [4] deals with wounds of female wild-type mice. The experiment in a line: Excisional wound model, single 8-mm wound, topical treatment, wild-type mice. It counts as in vivo, mouse.
Source text: (§2) Single excisional wounds 8-mm in diameter were made with a biopsy punch (Miltex, York, Pa., USA) using aseptic technique in the shaved dorsal regions of female diabetic db/db mice and female wild-type mice under isoflurane anesthesia. […] Wounds were photographed and immediately covered with a sterile dressing (3M Tegaderm™ Transparent Dressing, Butler Schein Animal Health, Inc., Dublin, Ohio). Cellulose acetate collars were made in-house from expired films and mounted on the wild-type mice to prevent them from disturbing the wounds on their back. […] On days 1, 3, 7, 10, and 14, digital photographs of wounds were taken while animals were under isoflurane anesthesia. […] The wounds with minimal surrounding healthy tissue were excised and either flash-frozen in liquid nitrogen for protein expression profiling or embedded in optimal cutting temperature (OCT) compound (Tissue-Tek, Torrance, Calif., USA) followed by cryosectioning for histological assessment.
(§3) Digital images were analyzed for wound areas using the NIH ImageJ version 1.45 software. Photographs of each wound were taken using a digital camera (Olympus SP-800UZ, Center Valley, Pa., USA), which was statically mounted on a tripod at a fixed distance above the mouse wound. A ruler was included in the photographic frame to allow ImageJ calibration. The wound outline was defined from the photographic image and the ImageJ software calculated the wound area. Wound closure was expressed as the change in wound area relative to that from day 0.
(§4) Wound closures are expressed as mean±SD (n=35 on day 1; n=28 on day 3; n=21 on day 7; n=14 on day 10; n=7 on day 14). Wound closures and levels of MMP-8 and MMP-9 were analyzed using a paired Student t-test; p<0.05 was considered statistically significant.
as §1

Experiment [5] has as its system wounds of female diabetic db/db mice. The experiment in a line: Excisional diabetic wound model, single 8-mm wound, topical treatment. It counts as in vivo, mouse.
Source text: as §2, §3, §4, §1

Experiment [6] has as its system wound gelatinolytic activity. The experiment in a line: In situ gelatin zymography of wound tissue (Example 3). It counts as in vivo, mouse. The settings on record: day 13; 0.25 mg/wound; compared to vehicle. How it is done:
On day 7, half of the mice (n=10) were sacrificed and the wounds of each animal excised. […] On the day of sacrifice, the wounds of each mouse were excised, and analyzed by histology, gelatin zymography and Western blot, and in situ gelatin zymography. Specifically, one wound from each sacrificed animal was analyzed by in situ gelatin zymography, and one wound from each sacrificed animal was analyzed by gelatin zymography, followed by Western blot.
FIG. 2(A) is a graph of the wound closure measurements, determined every day of the study as [(initial−final)/initial]×100. […] FIG. 2(C) is a photograph of a representative skin lesion of a mouse treated with saline on day 13. […] Wound gelatinolytic activity is visualized using fluorescein isothiocyanate (FITC)-labeled substrate (right images), and 4′,6-diamidino-2-phenylindole (DAPI)-labeled […] (left images). […] Thus, gelatinolytic activity was suppressed in the gelatinase inhibitor-treated group (FIG. 2 (D)).

In the case of `O=S(=O)(CC1CS1)c1ccc(Oc2ccccc2)cc1` (stereo not shown) [SB-3CT, 2-(((4-phenoxyphenyl)sulfonyl)methyl)thiirane], the wound closure in experiment [1] (at 13-14 days, SB-3CT-treated db/db mice (0.25 or 1.25 mg/wound per day)) was over 90%; in experiment [1] (day 6, 0.25 mg/wound per day topical, vehicle DMSO, db/db mice) it was 49.6±14.0%; in experiment [1] (day 6, 1.25 mg/wound per day topical, vehicle DMSO, db/db mice), 50.0±7.4%. Moreover, in experiment [1] (starting on day 2, db/db mice, Example 1), the “difference in wound closure between vehicle and treated mice” value was “Significant differences (p<0.05)”. For the same compound, the “efficacy in animal models” value in experiment [2] is on record as “effective”.

In the case of `Nc1ccc(Oc2ccc(S(=O)(=O)CC3CS3)cc2)cc1` (stereo not shown) [ND-322], the “gelatinase activity in wound tissues (in-situ zymography)” value in experiment [3] is on record as “significantly decreased”. Besides, the “effect on wound healing compared to vehicle” value is “did not accelerate healing” in experiment [4] (0.25 mg/wound/day topical, p>0.25) and “accelerated wound healing” in experiment [5] (0.25 mg/wound/day topical). In addition, the wound closure in experiment [4] (day 7, 0.25 mg/wound/day topical, n=21) amounted to 62±19%; in experiment [4] (day 10, 0.25 mg/wound/day topical, n=14), 82±11%; in experiment [4] (day 14, 0.25 mg/wound/day topical, n=7) it was 96±4%; in experiment [5] (day 10, 0.25 mg/wound/day topical, n=14, p<0.05 vs vehicle) it was 70±16%; in experiment [5] (day 14, 0.25 mg/wound/day topical, n=7, p<0.01 vs vehicle) it was 92±4%. Also, the results for the “re-epithelialization (H&E staining)” value in experiment [4] (day 14) and in experiment [5] (day 14) were “completely re-epithelialized” and “complete re-epithelialization”, respectively. Besides, the “difference in wound closure vs vehicle” value in experiment [5] (days 1, 3, and 7, p>0.2) is reported as “not statistically significant”.

As to `Nc1ccc(Oc2ccc(S(=O)(=O)CC3CS3)cc2)cc1` (stereo not shown) [p-amino SB-3CT], the “difference in wound healing between treated and vehicle groups” value in experiment [1] (Example 3, 0.25 mg/wound once per day, 13 days, vehicle saline) is “Significant differences in wound healing”. Besides, the wound closure in experiment [1] (day 6, 0.25 mg/wound topical once per day, vehicle saline, db/db mice) is reported as 37.0±9.5%. Further, in experiment [6], the “wound gelatinolytic activity (in situ gelatin zymography)” value was “suppression of gelatinolytic activity”.
